From patent US12104195B2, “Reelin/VEGF-C production/activation promoter and skin external composition using the same” (Amorepacific Corporation, priority 2022, dated 2024)

Columns and labels:
VEGF-C = VEGF-C cytokine analysis (VEGFC Human ELISA Kit) in normal human epidermal keratinocytes; assay type: cell-based; details: NHEK, 48 hours, compared with DMSO control group (100%); extract 1-100 μg/ml, compound 100-2000 nmoles; FIGS. 5 and 6
Experimental: Normal human epidermal keratinocytes were cultured in 6 well plates for 24 hours, while treated with DMSO as a control group (reference; 100%), treated with the fermented ginseng extract of the preparation example and the compound represented by Chemical Formula 1-1 (Sigma-Aldrich Co., Ltd.) at each concentration of 1, 10, 20, 50 and 100 μg/ml and at each concentration of 100, 250, 500, 1000, and 2000 nmoles, cultured for 48 hours, and then measured with respect to production and activity of VEGF-C through VEGF-C cytokine analysis by using VEGFC Human ELISA Kit (ThermoFisher Scientific, U.S.A.) according to a manual, and the results are shown in FIGS. 5 and 6.

reelin = assay: Reelin cytokine analysis (Human reelin ELISA Kit) in human dermal lymphatic endothelial cells; assay type: cell-based; details: HDLEC, 48 hours, compared with DMSO control group (100%); extract 1-100 μg/ml, compound 100-2000 nmole; FIGS. 3 and 4
Experimental: Human dermal lymphatic endothelial cells were cultured in 6 well plates for 24 hours, while treated with DMSO as a control group (reference; 100%), treated with the fermented ginseng extract of the preparation example and the compound represented by Chemical Formula 1-1 (Sigma-Aldrich Co., Ltd.) at each concentration of 1 μg/ml, 10 μg/ml, 20 μg/ml, 50 μg/ml, and 100 μg/ml and at each concentration of 100 nmole, 250 nmole, 500 nmole, 1000 nmole, and 2000 nmole, cultured for 48 hours, and then measured with respect to production and activity of reelin through a reelin cytokine analysis according to a manual by using Human reelin ELISA Kit (Mybiosource, Inc., U.S.A.), and the results are shown in FIGS. 3 and 4.

With `CC(C)=CCC[C@](C)(O[C@@H]1O[C@H](CO[C@@H]2O[C@H](CO)[C@@H](O)[C@H](O)[C@H]2O)[C@@H](O)[C@H](O)[C@H]1O)[C@H]1CC[C@]2(C)[C@@H]1[C@H](O)C[C@@H]1[C@@]3(C)CC[C@H](O[C@@H]4O[C@H](CO)[C@@H](O)[C@H](O)[C@H]4O)C(C)(C)[C@@H]3CC[C@]12C` the “production and activity of VEGF-C” value (VEGF-C) was “more improved the production and activity of VEGF-C” and the “production and activity of reelin” value (reelin) was “improved production and activity of reelin”.
